# In patent US5491145A, “Imidazopyridazines, their production and use” (Takeda Chemical Industries, Ltd., priority 1992, dated 1996):
# System: PAF-induced bronchoconstriction in guinea pigs
# Assay: Effect on platelet activating factor (PAF)-induced guinea pig bronchoconstriction (Konzett-Roessler method)
# Type: in vivo, guinea pig (male Hartley)
# Settings: 3 mg/kg, administered orally one hour before PAF (1 μg/kg i.v.)
# Experimental: Effect on platelet activating factor (PAF)-induced guinea pig bronchoconstriction Male Hartley guinea pigs (body weights about 500 g) were used. Bronchoconstriction induced by PAF, 1 μg/kg i.v., in guinea pigs was measured using to the method of Konzett-Roessler. With the guinea pig immobilized in the dorsal position, tracheotomy was performed under urethane (1.5 g/kg i.v.) anesthesia and the trachea was connected through a cannula to a respirator. The side branch of the tracheal cannula was connected to a transducer (model 7020, Ugobasile). With the volume of air per feed being controlled at 3-7 ml, the ventilation frequency at 70/min. and the pulmonary loading pressure at 10 cm H2 O, the volume of overflow air was recorded on a […], San-ei Sokki) through the transducer. After administration of gallamine (1 mg/kg i.v.), PAF, 1 μg/kg, dissolved in physiological saline was administered through a jugular vein cannula and the induced bronchoconstriction was recorded for 15 minutes. The drug suspended in a 5% solution of gum arabic was administered orally in a dose of 10 mg/kg or 3 mg/kg one hour before PAF treatment: The results are presented in Table 1.
row,Compound,% Inhibition of PAP-induced bronchoconstriction [%]
1,"6-(2,2-diethyl-5-sulfamoyl-1-pentyloxy)-7-methylimidazo[1,2-b]pyridazine [Example 17]",54
2,"Cc1cc2nccn2nc1OCC(C)(C)CCS(N)(=O)=O [Example 11, 6-(2,2-dimethyl-4-sulfamoyl-1-butoxy)-7-methylimidazo[1,2-b]pyridazine]",58
3,"CCC(CC)(COc1nn2ccnc2cc1C)CS(N)(=O)=O.Cl [Example 15, 6-(2,2-diethyl-3-sulfamoyl-1-propoxy)-7-methylimidazo[1,2-b]pyridazine hydrochloride]",80
4,CCC(C)(COc1nn2ccnc2cc1C)CS(N)(=O)=O (stereo not shown) [Example 20],57

# Same assay, conditions: 10 mg/kg, administered orally one hour before PAF (1 μg/kg i.v.)
row,Compound,% Inhibition of PAP-induced bronchoconstriction [%]
1,"Cc1cc2nccn2nc1OCC(C)(C)CS(N)(=O)=O [Example 3, 6-(2,2-dimethyl-3-sulfamoyl-1-propoxy)-7-methylimidazo[1,2-b]pyridazine]",76
2,"Cc1cc(OCC(C)(C)CS(N)(=O)=O)nn2ccnc12 [Example 5, 6-(2,2-dimethyl-3-sulfamoyl-1-propoxy)-8-methylimidazo[1,2-b]pyridazine]",90
3,"Cc1cc2nccn2nc1OCC(C)(C)CCS(N)(=O)=O [Example 11, 6-(2,2-dimethyl-4-sulfamoyl-1-butoxy)-7-methylimidazo[1,2-b]pyridazine]",71
